Data: publication PMC12566703, “Design, Synthesis, In Vitro and In Silico Biological Evaluation of New Pyridine-2,5-Dicarboxylates Esters Bearing Natural Source Fragments as Anti-Trypanosomatid Agents” (Pharmaceutics, 2025)
Where two headings read alike, the source gives them in different places.

What was measured:
[1] = tested on: T. cruzi (NINOA) epimastigotes; assay: In vitro trypanocidal activity, Alamar Blue assay, 48 h; format: cell-based, Trypanosoma cruzi; conditions: for Selectivity Index T. cruzi NINOA: CC50 (J774.2)/IC50; for IC50: 48 h, read-out: T. cruzi IC50 (µM ± SD) NINOA; for IC50 / Trypanocidal activity class in words, NINOA strain: epimastigotes, NINOA strain; for Trypanocidal activity class in words, NINOA strain: classes by IC50
Method: (§1) Both strains were maintained in liver infusion tryptose (LIT) medium supplemented with 10% FBS and 0.1% penicillin-streptomycin. They were preserved by transferring 1 × 10^6 parasites/mL into a new culture medium every week. […] The metabolic activity was determined by the Alamar Blue assay. Briefly, after the incubation period, 20 µL of 2.5 mM resazurin solution was added to each well and incubated for 3 h. Three independent experiments were performed in triplicate. The half-maximum inhibitory concentration (IC50) was determined using probit analysis.

[2] = tested on: T. cruzi (A1) epimastigotes; assay: as above; format: cell-based, Trypanosoma cruzi; conditions: for Selectivity Index T. cruzi A1: CC50 (J774.2)/IC50; for IC50: 48 h, read-out: T. cruzi IC50 (µM ± SD) A1
Method: as §1

[3] = Cytotoxicity assay, MTT method, 48 h; format: cell-based, murine; conditions: mouse, J774.2 macrophage cells, J774.2 cell line, read-out: Macrophage J774.2 CC50 (µM ± SD)
Method: A cytotoxicity assay was performed using the murine macrophage J774.2 cell line, which was recloned from the original ascites and solid tumor J774.1 (according to the manufacturer). The cells were cultured in RPMI medium supplemented with 10% SBF, 100 U […] penicillin, 100 µg/mL streptomycin, and glutamine (2 mM), and 5% CO2 atmosphere. The medium was changed every 2–3 days. Macrophages were used at 1 × 10^6 cells and were incubated with compounds at different concentrations (0.75–100 µM, respectively) at 37 °C for 48 h in a 5% CO2 atmosphere. DMSO was used as a negative control (0.2%). The metabolic activity of macrophages was determined by the MTT method. The percentage of cell viability was calculated, and the half-maximal cytotoxic concentration (CC50) was determined using probit analysis. Three independent assays were conducted in triplicate.

[4] = tested on: L. mexicana (MHOM/MX/2017/UABJO17FCQEPS) (FCQEPS) promastigotes; assay: In vitro leishmanicidal activity, MTT method, 48 h; format: cell-based, Leishmania mexicana; conditions: for Selectivity Index L. mexicana FCQEPS: CC50 (J774.2)/IC50; for IC50: 48 h, read-out: L. mexicana IC50 (µM ± SD) FCQEPS; for IC50 / Leishmanicidal activity class in words, FCQEPS strain: promastigotes, FCQEPS strain; for Leishmanicidal activity class in words, FCQEPS strain: classes by IC50
Method: (§2) To determine the leishmanicidal activity of pyridine-2,5-dicarboxylates, the parasites, in their logarithmic growth phase (5 × 10^5 parasites/mL), were cultured in 96-well microliter plates with the corresponding pyridine-2,5-dicarboxylate compound at different concentrations (0.78–100 µM). Compounds were dissolved in DMSO in a final volume of 200 µL for 48 h at 26 °C. Parasites treated with DMSO (0.2%) were used as a negative control, while treatments with Glucantime and Amphotericin B, at the same concentrations, were used as positive controls. The metabolic activity of the cells was determined using the 3-(4,5-Dimethylthiazol-2-yl)-2,5-diphenyltetrazolium bromide (MTT) method. IC50 was determined using probit analysis. Three independent experiments were performed in triplicate, and the data were analyzed for statistical significance (p < 0.05) using Biostat 5.3.0 software.

[5] = tested on: L. mexicana (MNYC/BZ/62/M379) (M379) promastigotes; assay: In vitro leishmanicidal activity, MTT method, 48 h; format: cell-based, Leishmania mexicana; conditions: for Selectivity Index L. mexicana M379: CC50 (J774.2)/IC50; for IC50: 48 h, read-out: L. mexicana IC50 (µM ± SD) M379; for IC50 / Leishmanicidal activity class in words, M379 strain: promastigotes, M379 strain; for Leishmanicidal activity class in words, M379 strain: classes by IC50
Method: as §2

[6] = Trypanosoma cruzi, epimastigotes, A1 strain

| SMILES | Selectivity Index T. cruzi NINOA [1] | IC50 ([1]; Trypanosoma cruzi) [µM] | Selectivity Index T. cruzi A1 [2] | IC50 [2, 6] [µM] | CC50 at 48 h [3] [µM] | Selectivity Index L. mexicana FCQEPS [4] | IC50 ([4]; Leishmania mexicana) [µM] | Selectivity Index L. mexicana M379 [5] | IC50 ([5]; Leishmania mexicana) [µM] | Leishmanicidal activity class in words, M379 strain [5] | Leishmanicidal activity class in words, FCQEPS strain [4] | Trypanocidal activity class in words, A1 strain ([2]; epimastigotes, A1 strain, classes by IC50) | Trypanocidal activity class in words, NINOA strain [1] | IC50 [1] [µM] | IC50 ([2]; epimastigotes, A1 strain) [µM] | IC50 [4] [µM] | IC50 [5] [µM] |
| --- | --- | --- | --- | --- | --- | --- | --- | --- | --- | --- | --- | --- | --- | --- | --- | --- | --- |
| CCOC(=O)c1nc(C)c(C(=O)OCc2ccc3c(c2)OCO3)cc1-c1ccc(C)cc1 [Compound 6b] | >3.7 | 54 ± 2.29 | >4.0 | 50.2 ± 2.31 | > 200 | >1 | > 200 | >1 | > 200 | did not have antiparasitic activity |  |  |  |  |  |  |  |
| CCOC(=O)c1nc(C)c(C(=O)OCc2ccc3c(c2)OCO3)cc1-c1ccc(F)cc1 [Compound 6c] | >1 | > 200 | >7.9 | 25.4 ± 0.6 | > 200 | >1 | > 200 | >1 | > 200 | inactive |  |  |  |  |  |  |  |
| CCOC(=O)c1nc(C)c(C(=O)OC/C=C/c2ccccc2)cc1-c1ccccc1 [Compound 7a] | >7.20 | 27.8 ± 1.66 | >1 | > 200 | > 200 | >1 | > 200 | >1 | > 200 | did not have antiparasitic activity | did not have leishmanicidal activity |  |  |  |  |  |  |
| CCOC(=O)c1nc(C)c(C(=O)OCC=Cc2ccccc2)cc1-c1ccc(C)cc1 [Compound 7b] | >2.0 |  | >1 | > 200 | > 200 | >1.7 | 116.71 ± 0.03 | >1 | > 200 | did not have antiparasitic activity |  | completely lose their trypanocidal activity |  |  |  |  |  |
| CCOC(=O)c1nc(C)c(C(=O)OCC=Cc2ccccc2)cc1-c1ccc(F)cc1 [Compound 7c] | >3.1 | 63.1 ± 1.64 | >8.8 | 22.8 ± 0.69 | > 200 | >1 | > 200 | >1 | > 200 | inactive |  |  |  |  |  |  |  |
| CCOC(=O)c1nc(C)c(C(=O)O[C@@H]2C[C@@H](C)CC[C@@H]2C(C)C)cc1-c1ccccc1 [Compound 8a] | >1 |  | >1 | > 200 | > 200 | >2.4 | 82.7 | >2.5 | 79.1 |  |  |  | inactive |  |  |  |  |
| CCOC(=O)c1nc(C)c(C(=O)O[C@@H]2C[C@@H](C)CC[C@@H]2C(C)C)cc1-c1ccc(C)cc1 [Compound 8b] | >1.8 | 106.9 ± 0.5 | >3.9 |  | > 200 | >1 |  | >1 |  |  |  |  | slight activity | > 200 |  |  |  |
| CCOC(=O)c1nc(C)c(C(=O)O[C@@H]2C[C@@H](C)CC[C@H]2C(C)C)cc1-c1ccc(F)cc1 [Compound 8c, 2-Ethyl 5-((1R,2S,5S)-2-isopropyl-5-methylcyclohexyl) 3-(4-fluorophenyl)-6-methylpyridine-2,5-dicarboxylate] | >4.3 | ≤ 56.7 | >9.2 |  | > 200 | >2.2 | 90.9 ± 5 | >1 | > 200 |  |  |  |  | 46 ± 3.33 |  |  |  |
| CCOC(=O)c1nc(C)c(C(=O)OC2C[C@@H]3CC[C@@]2(C)C3(C)C)cc1-c1ccccc1 (stereo partly shown) [Compound 9a] | >3.6 | 55.8 ± 2.5 | >8.0 | < 29 | > 200 | >1 | > 200 | >1 | > 200 | did not have antiparasitic activity | did not have leishmanicidal activity |  | moderately active (moderately active (IC50 41 to 100 µM)) |  | 25 ± 2.98 |  |  |
| CCOC(=O)c1nc(C)c(C(=O)O[C@@H]2C[C@H]3CC[C@@]2(C)C3(C)C)cc1-c1ccc(C)cc1 [Compound 9b, 2-Ethyl 5-((1S,2R,4R)-1,7,7-trimethylbicyclo[2.2.1]heptan-2-yl) 6-methyl-3-(p-tolyl)pyridine-2,5-dicarboxylate] |  | < 40 | >5.2 | < 40 | > 200 | >2.5 |  | >5.0 |  |  |  |  |  | 22.3 ± 1.6 | 38.5 |  |  |
| CCOC(=O)c1nc(C)c(C(=O)OC2C[C@@H]3CC[C@@]2(C)C3(C)C)cc1-c1ccc(F)cc1 (stereo partly shown) [Compound 9c] | >7.6 | 26.2 | >1 | > 200 | > 200 | >1 | > 200 | >1 | > 200 | inactive |  |  |  | 26.2 ± 1.55 |  |  |  |
| CCOC(=O)c1nc(C)c(C(=O)OCC23CC4CC(CC(C4)C2)C3)cc1-c1ccccc1 [Compound 10a] | >1.9 | 105 | >4.3 | 46.9 | > 200 | >1.2 | ≤ 162 | >2.4 | ≤ 162 |  |  |  |  | 105 ± 1.34 |  | 161.53 ± 0.03 | 82.19 ± 0.01 |
